Side chains are listed from the residue outwards. Ends that are not written are not given here. BAPTES = N-(3-(triethoxysilyl)propyl)buta-2,3-dienamide; Fe3O4 nanoparticle = not defined here
B1: Fe3O4-BAPTES-Peptide NPs (NP-Pep): high affinity cTnI-binding peptide HWQIAYNEHQWQC on BAPTES-silanized Fe3O4 nanoparticles (peptide)
peptide: HWQIAYNEHQWQC([BAPTES-Fe3O4 nanoparticle])
modifications: not fully specified; reading uncertain
notes: Synthetic peptide (GenScript) found by phage display and in silico evolution (literature); Many copies on each nanoparticle (about 1.5 peptide/nm^2 in the text); In the assay it stood on the particle, not free; also called NP-Peptide; Fe3O4-Peptide NPs

Tests used:
cTnI = cTnI (Homo sapiens, UniProt P19429); settings: peptide evolved by phage display and in silico evolution; targets cTnI residues 114-144; read-out: binding affinity (Kd); cited from earlier work
Sequence of cTnI (P19429 whole entry, the tested form may be a part): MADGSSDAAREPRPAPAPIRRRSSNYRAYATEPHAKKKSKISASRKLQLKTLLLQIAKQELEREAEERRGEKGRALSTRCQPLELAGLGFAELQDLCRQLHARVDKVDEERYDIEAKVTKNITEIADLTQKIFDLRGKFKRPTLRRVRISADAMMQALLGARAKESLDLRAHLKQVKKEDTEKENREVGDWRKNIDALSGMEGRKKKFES

[1] = molecular target: T1, human serum albumin (HSA) (human, UniProt P02768 25-609); experiment: nanoparticle pull-down from human serum (10 mg) spiked with cTnI, SDS-PAGE and top-down LC/MS
T1 construct: mature; also called C-HSA; C-C-HSA
T1 sequence (P02768 25-609): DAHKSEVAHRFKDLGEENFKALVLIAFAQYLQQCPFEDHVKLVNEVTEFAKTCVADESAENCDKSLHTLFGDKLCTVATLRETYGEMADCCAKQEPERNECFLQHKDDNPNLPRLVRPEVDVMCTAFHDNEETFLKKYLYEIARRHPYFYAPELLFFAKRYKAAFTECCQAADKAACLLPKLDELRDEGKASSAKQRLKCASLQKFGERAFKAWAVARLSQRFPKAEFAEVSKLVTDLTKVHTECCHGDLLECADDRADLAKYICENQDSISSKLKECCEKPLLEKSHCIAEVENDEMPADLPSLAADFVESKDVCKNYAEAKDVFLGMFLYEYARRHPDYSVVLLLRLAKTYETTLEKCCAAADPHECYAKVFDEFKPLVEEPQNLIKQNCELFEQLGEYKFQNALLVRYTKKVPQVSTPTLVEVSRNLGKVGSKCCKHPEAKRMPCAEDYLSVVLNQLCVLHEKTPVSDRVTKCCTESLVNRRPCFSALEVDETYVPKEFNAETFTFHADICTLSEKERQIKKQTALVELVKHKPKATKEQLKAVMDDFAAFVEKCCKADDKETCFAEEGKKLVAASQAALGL
Protocol: To this end, cTnI enrichment was performed from human serum spiked-in with the cTnI extracted from the same donor, DCM, and post-mortem heart samples as in FIGS. 4-6. The endogenous cTnI obtained from the different human heart samples were used as the reference cTnI sources and served to mimic cTnI found in the blood.
Comparison of the cTnI enrichment performance of the NP-Pep platform against the agarose-mAb or agarose-Pep platform from human serum spiked with cTnI. The enrichment workflow was performed in a cold room held at 4° C. to minimize possible artifactual protein modifications, such as oxidation. NP-Control (NP-BAPTES),NP-Pep (Fe₃O₄-BAPTES-Peptide), Agarose-Control beads (no coupling), Agarose-Pep beads, and Agarose-mAb beads were incubated with in a protein loading mixture containing human male AB serum (10 mg) and sarcomeric tissue extract obtained from healthy donor heart tissue, diseased heart tissue of DCM, and post-mortem heart tissue containing 306 ng cTnI, 482 ng cTnI, and 465 ng cTnI in the protein extract, respectively. cTnI values were determined by ELISA quantification as previously described. The loading mixture (L), flow through (F), and elution mixture (E) were collected, desalted using a 10 kDa MWCO, and buffer exchanged prior to SDS-PAGE gel analysis or LC-MS analysis as described in the tissue enrichment protocol.

Molecule | Kd (cTnI) [pM] | binding result [1]
HWQIAYNEHQWQ | 270 | –
B1 | – | no binding
